Measurements as given in ChEMBL document CHEMBL4507287, “Data for DCP probe MRL-650” (2021).

Columns and labels:
[1] = target: cAMP-dependent protein kinase catalytic subunit alpha (Homo sapiens) (UniProt P17612); settings: Compound concentration 1000.0 nM
[2] = test system: Receptor-type tyrosine-protein kinase FLT3 (Homo sapiens), P36888 [D835V]; settings: Compound concentration 1000.0 nM
[3] = target: Serine/threonine-protein kinase SBK1 (Homo sapiens) (UniProt Q52WX2); settings: Compound concentration 1000.0 nM
[4] = target: Non-receptor tyrosine-protein kinase TYK2 (Homo sapiens) (UniProt P29597); settings: Compound concentration 1000.0 nM
[5] = target: Alpha-1D adrenergic receptor (Homo sapiens) (UniProt P25100); settings: Compound concentration 10.0 uM
[6] = target: Calcium/calmodulin-dependent protein kinase type II subunit alpha (Homo sapiens) (UniProt Q9UQM7); settings: Compound concentration 1000.0 nM
[7] = target: TGF-beta receptor type-2 (Homo sapiens) (UniProt P37173); settings: Compound concentration 1000.0 nM
[8] = target: Serine/threonine-protein kinase WNK4 (Homo sapiens) (UniProt Q96J92); settings: Compound concentration 1000.0 nM
[9] = target: Casein kinase I isoform delta (Homo sapiens) (UniProt P48730); settings: Compound concentration 1000.0 nM
[10] = target: Mitogen-activated protein kinase 10 (Homo sapiens) (UniProt P53779); settings: Compound concentration 1000.0 nM
[11] = target: 5-hydroxytryptamine receptor 2B (Homo sapiens) (UniProt P41595); settings: Compound concentration 10.0 uM
[12] = target: Phosphatidylinositol 4,5-bisphosphate 3-kinase catalytic subunit delta isoform (Homo sapiens) (UniProt O00329); settings: Compound concentration 1000.0 nM
[13] = target: Serine/threonine-protein kinase BRSK2 (Homo sapiens) (UniProt Q8IWQ3); settings: Compound concentration 1000.0 nM
[14] = test system: Mast/stem cell growth factor receptor Kit (Homo sapiens), P10721 [D816V]; settings: Compound concentration 1000.0 nM
[15] = target: D(1B) dopamine receptor (Homo sapiens) (UniProt P21918); settings: Compound concentration 10.0 uM
[16] = target: Homeodomain-interacting protein kinase 2 (Homo sapiens) (UniProt Q9H2X6); settings: Compound concentration 1000.0 nM
[17] = target: cAMP-dependent protein kinase catalytic subunit beta (Homo sapiens) (UniProt P22694); settings: Compound concentration 1000.0 nM
[18] = target: Phosphatidylinositol 4-phosphate 5-kinase type-1 alpha (Homo sapiens) (UniProt Q99755); settings: Compound concentration 1000.0 nM
[19] = target: Sodium-dependent noradrenaline transporter (Homo sapiens) (UniProt P23975); settings: Compound concentration 10.0 uM
[20] = target: NUAK family SNF1-like kinase 1 (Homo sapiens) (UniProt O60285); settings: Compound concentration 1000.0 nM
[21] = target: Tyrosine-protein kinase Tec (Homo sapiens) (UniProt P42680); settings: Compound concentration 1000.0 nM
[22] = target: Serine/threonine-protein kinase MRCK alpha (Homo sapiens) (UniProt Q5VT25); settings: Compound concentration 1000.0 nM
[23] = test system: Epidermal growth factor receptor (Homo sapiens), P00533 [UNDEFINED MUTATION]; settings: Compound concentration 1000.0 nM
[24] = target: Ribosomal protein S6 kinase alpha-3 (Homo sapiens) (UniProt P51812); settings: Compound concentration 1000.0 nM
[25] = target: Cyclin-dependent kinase-like 1 (Homo sapiens) (UniProt Q00532); settings: Compound concentration 1000.0 nM
[26] = target: Serine/threonine-protein kinase 10 (Homo sapiens) (UniProt O94804); settings: Compound concentration 1000.0 nM
[27] = target: D(4) dopamine receptor (Homo sapiens) (UniProt P21917); settings: Compound concentration 10.0 uM
[28] = target: Calcium/calmodulin-dependent protein kinase type IV (Homo sapiens) (UniProt Q16566); settings: Compound concentration 1000.0 nM
[29] = target: Ribosomal protein S6 kinase beta-1 (Homo sapiens) (UniProt P23443); settings: Compound concentration 1000.0 nM
[30] = target: Cyclin-dependent kinase 8 (Homo sapiens) (UniProt P49336); settings: Compound concentration 1000.0 nM
[31] = target: Mitogen-activated protein kinase kinase kinase 1 (Homo sapiens) (UniProt Q13233); settings: Compound concentration 1000.0 nM
[32] = target: Interferon-induced, double-stranded RNA-activated protein kinase (Homo sapiens) (UniProt P19525); settings: Compound concentration 1000.0 nM
[33] = target: Serine/threonine-protein kinase TAO3 (Homo sapiens) (UniProt Q9H2K8); settings: Compound concentration 1000.0 nM
[34] = target: Hormonally up-regulated neu tumor-associated kinase (Homo sapiens) (UniProt P57058); settings: Compound concentration 1000.0 nM
[35] = target: Ephrin type-B receptor 6 (Homo sapiens) (UniProt O15197); settings: Compound concentration 1000.0 nM
[36] = target: Serine/threonine-protein kinase 17A (Homo sapiens) (UniProt Q9UEE5); settings: Compound concentration 1000.0 nM
[37] = target: Leucine-rich repeat serine/threonine-protein kinase 2 (Homo sapiens) (UniProt Q5S007); settings: Compound concentration 1000.0 nM
[38] = target: Muscarinic acetylcholine receptor M4 (Homo sapiens) (UniProt P08173); settings: Compound concentration 10.0 uM
[39] = target: Tyrosine-protein kinase ZAP-70 (Homo sapiens) (UniProt P43403); settings: Compound concentration 1000.0 nM
[40] = target: Beta-adrenergic receptor kinase 1 (Homo sapiens) (UniProt P25098); settings: Compound concentration 1000.0 nM
[41] = target: Homeodomain-interacting protein kinase 4 (Homo sapiens) (UniProt Q8NE63); settings: Compound concentration 1000.0 nM
[42] = target: Myosin-IIIb (Homo sapiens) (UniProt Q8WXR4); settings: Compound concentration 1000.0 nM
[43] = test system: Phosphatidylinositol 4,5-bisphosphate 3-kinase catalytic subunit alpha isoform (Homo sapiens), P42336 [C420R]; settings: Compound concentration 1000.0 nM
[44] = test system: Epidermal growth factor receptor (Homo sapiens), P00533 [G719C]; settings: Compound concentration 1000.0 nM
[45] = target: Tyrosine-protein kinase receptor Tie-1 (Homo sapiens) (UniProt P35590); settings: Compound concentration 1000.0 nM

Tyrosine-protein kinase Tec (Homo sapiens), sequence (P42680 whole entry): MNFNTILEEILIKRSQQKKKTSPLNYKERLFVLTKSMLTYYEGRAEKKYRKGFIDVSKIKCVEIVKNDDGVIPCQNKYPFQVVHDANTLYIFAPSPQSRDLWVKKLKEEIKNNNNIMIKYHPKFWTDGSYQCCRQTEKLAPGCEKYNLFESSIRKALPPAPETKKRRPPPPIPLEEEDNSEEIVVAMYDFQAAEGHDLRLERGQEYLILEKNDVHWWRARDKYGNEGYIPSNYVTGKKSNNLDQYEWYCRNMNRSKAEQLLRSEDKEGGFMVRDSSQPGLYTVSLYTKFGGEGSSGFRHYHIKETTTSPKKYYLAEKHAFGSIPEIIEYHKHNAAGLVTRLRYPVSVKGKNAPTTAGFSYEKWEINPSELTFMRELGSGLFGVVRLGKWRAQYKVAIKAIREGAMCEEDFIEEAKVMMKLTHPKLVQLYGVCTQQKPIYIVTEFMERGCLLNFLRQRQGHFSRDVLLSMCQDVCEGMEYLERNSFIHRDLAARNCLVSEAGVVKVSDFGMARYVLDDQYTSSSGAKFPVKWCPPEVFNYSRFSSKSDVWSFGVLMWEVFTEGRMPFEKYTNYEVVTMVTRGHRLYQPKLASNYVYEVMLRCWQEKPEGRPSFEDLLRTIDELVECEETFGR
Ephrin type-B receptor 6 (Homo sapiens), sequence (O15197 whole entry): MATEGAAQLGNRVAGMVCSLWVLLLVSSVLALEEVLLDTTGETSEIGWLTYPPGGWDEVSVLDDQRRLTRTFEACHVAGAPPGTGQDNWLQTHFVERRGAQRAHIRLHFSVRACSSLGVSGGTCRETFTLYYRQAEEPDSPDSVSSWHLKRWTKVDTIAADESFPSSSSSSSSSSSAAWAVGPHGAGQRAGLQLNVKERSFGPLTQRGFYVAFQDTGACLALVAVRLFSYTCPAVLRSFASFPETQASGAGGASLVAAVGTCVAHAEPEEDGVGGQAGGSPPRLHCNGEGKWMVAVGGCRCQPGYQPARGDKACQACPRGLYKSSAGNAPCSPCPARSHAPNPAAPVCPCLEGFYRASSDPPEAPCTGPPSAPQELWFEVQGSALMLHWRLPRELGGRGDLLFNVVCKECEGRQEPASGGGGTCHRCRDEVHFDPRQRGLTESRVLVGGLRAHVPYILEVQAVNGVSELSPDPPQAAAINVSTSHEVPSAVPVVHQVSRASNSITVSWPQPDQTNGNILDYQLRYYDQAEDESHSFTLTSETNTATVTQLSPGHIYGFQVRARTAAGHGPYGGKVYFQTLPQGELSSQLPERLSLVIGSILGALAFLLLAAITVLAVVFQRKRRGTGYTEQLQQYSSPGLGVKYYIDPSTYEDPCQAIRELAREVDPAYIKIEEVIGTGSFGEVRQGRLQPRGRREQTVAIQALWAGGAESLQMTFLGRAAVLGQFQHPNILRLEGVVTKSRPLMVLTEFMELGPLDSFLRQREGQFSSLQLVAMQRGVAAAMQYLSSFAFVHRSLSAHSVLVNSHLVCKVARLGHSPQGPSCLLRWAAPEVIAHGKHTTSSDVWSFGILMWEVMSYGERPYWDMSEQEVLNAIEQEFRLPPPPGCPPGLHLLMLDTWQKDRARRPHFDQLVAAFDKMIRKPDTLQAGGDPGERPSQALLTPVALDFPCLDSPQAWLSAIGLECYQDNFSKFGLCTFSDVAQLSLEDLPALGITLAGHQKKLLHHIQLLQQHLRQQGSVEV
Serine/threonine-protein kinase BRSK2 (Homo sapiens), sequence (Q8IWQ3 whole entry): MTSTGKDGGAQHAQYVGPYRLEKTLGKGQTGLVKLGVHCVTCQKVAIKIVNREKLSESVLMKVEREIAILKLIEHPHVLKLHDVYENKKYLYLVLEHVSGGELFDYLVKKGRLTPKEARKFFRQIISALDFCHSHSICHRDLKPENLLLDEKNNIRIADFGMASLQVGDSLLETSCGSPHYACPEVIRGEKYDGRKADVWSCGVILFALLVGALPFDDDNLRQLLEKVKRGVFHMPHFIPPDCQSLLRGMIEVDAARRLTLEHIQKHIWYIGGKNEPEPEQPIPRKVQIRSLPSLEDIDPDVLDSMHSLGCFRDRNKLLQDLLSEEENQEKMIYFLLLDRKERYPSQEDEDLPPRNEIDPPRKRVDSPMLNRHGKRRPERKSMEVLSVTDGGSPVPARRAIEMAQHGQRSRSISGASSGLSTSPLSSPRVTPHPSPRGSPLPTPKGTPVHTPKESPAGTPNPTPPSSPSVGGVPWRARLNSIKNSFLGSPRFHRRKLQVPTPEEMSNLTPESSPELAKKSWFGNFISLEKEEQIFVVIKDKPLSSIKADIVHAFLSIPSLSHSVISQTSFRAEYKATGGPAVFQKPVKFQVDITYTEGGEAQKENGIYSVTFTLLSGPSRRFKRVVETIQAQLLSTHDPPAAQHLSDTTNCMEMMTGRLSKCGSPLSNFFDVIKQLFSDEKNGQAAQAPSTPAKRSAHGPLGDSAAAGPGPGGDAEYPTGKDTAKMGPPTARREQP
Phosphatidylinositol 4-phosphate 5-kinase type-1 alpha (Homo sapiens), sequence (Q99755 whole entry): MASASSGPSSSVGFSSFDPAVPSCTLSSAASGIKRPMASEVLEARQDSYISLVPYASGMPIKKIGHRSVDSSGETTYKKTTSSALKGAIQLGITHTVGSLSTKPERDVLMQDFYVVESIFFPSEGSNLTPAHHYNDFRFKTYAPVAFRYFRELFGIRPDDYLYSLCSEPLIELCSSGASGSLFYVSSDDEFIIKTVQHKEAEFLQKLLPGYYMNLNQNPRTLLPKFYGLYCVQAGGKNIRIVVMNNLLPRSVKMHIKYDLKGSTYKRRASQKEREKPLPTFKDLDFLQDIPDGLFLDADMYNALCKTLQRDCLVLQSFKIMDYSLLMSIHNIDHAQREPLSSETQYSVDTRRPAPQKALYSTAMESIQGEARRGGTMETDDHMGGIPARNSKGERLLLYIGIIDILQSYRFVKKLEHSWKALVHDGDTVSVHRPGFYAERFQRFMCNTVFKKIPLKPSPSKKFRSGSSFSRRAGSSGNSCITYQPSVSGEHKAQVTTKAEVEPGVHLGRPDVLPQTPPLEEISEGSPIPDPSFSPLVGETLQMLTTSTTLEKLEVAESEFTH
5-hydroxytryptamine receptor 2B (Homo sapiens), sequence (P41595 whole entry, canonical isoform): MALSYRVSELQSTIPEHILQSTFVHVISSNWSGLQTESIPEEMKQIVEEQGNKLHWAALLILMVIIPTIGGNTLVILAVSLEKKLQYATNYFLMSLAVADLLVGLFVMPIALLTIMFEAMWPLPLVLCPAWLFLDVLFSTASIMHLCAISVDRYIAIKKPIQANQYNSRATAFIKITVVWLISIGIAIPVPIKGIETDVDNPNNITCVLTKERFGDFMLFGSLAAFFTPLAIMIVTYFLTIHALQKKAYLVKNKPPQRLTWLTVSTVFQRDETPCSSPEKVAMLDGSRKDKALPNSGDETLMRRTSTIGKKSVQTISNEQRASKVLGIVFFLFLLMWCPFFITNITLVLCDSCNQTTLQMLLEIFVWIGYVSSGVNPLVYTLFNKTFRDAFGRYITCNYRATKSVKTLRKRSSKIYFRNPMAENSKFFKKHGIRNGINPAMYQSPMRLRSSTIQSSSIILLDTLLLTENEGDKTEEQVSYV
Hormonally up-regulated neu tumor-associated kinase (Homo sapiens), sequence (P57058 whole entry): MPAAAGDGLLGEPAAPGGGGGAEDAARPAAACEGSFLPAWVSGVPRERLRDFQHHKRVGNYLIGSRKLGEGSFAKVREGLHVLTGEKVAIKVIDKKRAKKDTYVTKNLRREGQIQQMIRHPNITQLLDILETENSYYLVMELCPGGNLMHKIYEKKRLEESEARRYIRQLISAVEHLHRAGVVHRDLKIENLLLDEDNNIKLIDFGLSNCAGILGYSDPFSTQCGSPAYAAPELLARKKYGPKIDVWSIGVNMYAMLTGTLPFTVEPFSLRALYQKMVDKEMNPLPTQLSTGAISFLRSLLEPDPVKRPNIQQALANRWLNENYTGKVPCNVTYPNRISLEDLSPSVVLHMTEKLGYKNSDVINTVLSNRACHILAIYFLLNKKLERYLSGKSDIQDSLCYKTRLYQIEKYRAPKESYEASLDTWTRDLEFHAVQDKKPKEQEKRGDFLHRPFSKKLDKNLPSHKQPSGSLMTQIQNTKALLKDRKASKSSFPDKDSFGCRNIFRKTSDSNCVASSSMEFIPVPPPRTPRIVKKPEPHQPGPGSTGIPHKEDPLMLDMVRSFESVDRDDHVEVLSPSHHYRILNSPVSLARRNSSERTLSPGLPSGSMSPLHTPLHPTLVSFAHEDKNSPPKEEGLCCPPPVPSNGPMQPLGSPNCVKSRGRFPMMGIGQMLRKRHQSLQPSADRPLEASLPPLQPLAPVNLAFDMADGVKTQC
Cyclin-dependent kinase-like 1 (Homo sapiens), sequence (Q00532 whole entry): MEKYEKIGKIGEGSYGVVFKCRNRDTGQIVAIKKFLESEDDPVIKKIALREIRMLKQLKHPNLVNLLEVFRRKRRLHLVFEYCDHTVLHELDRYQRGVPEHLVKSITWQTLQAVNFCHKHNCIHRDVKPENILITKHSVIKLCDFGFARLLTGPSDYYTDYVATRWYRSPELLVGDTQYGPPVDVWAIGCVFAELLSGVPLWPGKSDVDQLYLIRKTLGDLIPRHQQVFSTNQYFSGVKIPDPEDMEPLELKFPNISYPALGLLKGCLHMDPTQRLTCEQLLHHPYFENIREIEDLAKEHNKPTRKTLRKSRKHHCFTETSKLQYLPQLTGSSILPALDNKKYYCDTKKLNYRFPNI
Serine/threonine-protein kinase SBK1 (Homo sapiens), sequence (Q52WX2 whole entry): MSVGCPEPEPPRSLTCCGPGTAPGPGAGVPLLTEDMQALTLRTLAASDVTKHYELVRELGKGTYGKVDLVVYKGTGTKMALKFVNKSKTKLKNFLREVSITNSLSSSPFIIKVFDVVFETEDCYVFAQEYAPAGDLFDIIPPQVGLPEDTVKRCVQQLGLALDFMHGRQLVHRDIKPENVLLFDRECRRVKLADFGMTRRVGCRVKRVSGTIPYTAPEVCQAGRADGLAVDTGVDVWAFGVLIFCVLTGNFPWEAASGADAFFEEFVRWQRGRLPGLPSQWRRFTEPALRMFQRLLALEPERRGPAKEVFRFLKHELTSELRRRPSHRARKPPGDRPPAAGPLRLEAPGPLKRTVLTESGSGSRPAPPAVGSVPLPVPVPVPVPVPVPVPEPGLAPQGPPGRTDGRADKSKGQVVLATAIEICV

CC(=O)c1c(NS(C)(=O)=O)c2cc(-c3ccc(Cl)cc3)c(-c3ccc(Cl)cc3Cl)nc2n(C)c1=O [MRL-CB1-NC]
inactive: residual activity [1] 100% | residual activity [2] 89% | residual activity [3] 77% | residual activity [4] 89% | inhibition [5] 15.9% | residual activity [6] 100% | residual activity [7] 100% | residual activity [8] 96% | residual activity [9] 100% | residual activity [10] 78% | inhibition [11] -0.601% | residual activity [12] 100% | residual activity [13] 90% | residual activity [14] 100% | inhibition [15] 44.5% | residual activity [16] 87% | residual activity [17] 92% | residual activity [18] 97% | inhibition [19] 20.2% | residual activity [20] 86% | residual activity [21] 100% | residual activity [22] 95% | residual activity [23] 100% | residual activity [24] 100% | residual activity [25] 91% | residual activity [26] 100% | inhibition [27] 17.1% | residual activity [28] 100% | residual activity [29] 95% | residual activity [30] 83% | residual activity [31] 94% | residual activity [32] 100% | residual activity [33] 72% | residual activity [34] 100% | residual activity [35] 100% | residual activity [36] 88% | residual activity [37] 65% | inhibition [38] 16.2% | residual activity [39] 100% | residual activity [40] 74% | residual activity [41] 93% | residual activity [42] 99% | residual activity [43] 93% | residual activity [44] 100% | residual activity [45] 100%

CC(=O)Nc1c(C(C)=O)c(=O)n(C)c2nc(-c3ccc(Cl)cc3Cl)c(-c3ccc(Cl)cc3)cc12 [NAPHTHYRIDINONE]
inactive: residual activity [1] 100% | residual activity [2] 82% | residual activity [3] 80% | residual activity [4] 100% | inhibition [5] -3.09% | residual activity [6] 100% | residual activity [7] 100% | residual activity [8] 100% | residual activity [9] 100% | residual activity [10] 100% | inhibition [11] 1.6% | residual activity [12] 100% | residual activity [13] 100% | residual activity [14] 100% | inhibition [15] 5.24% | residual activity [16] 100% | residual activity [17] 100% | residual activity [18] 100% | inhibition [19] 15.5% | residual activity [20] 100% | residual activity [21] 100% | residual activity [22] 100% | residual activity [23] 100% | residual activity [24] 99% | residual activity [25] 100% | residual activity [26] 100% | inhibition [27] 22.7% | residual activity [28] 100% | residual activity [29] 95% | residual activity [30] 100% | residual activity [31] 100% | residual activity [32] 100% | residual activity [33] 63% | residual activity [34] 100% | residual activity [35] 100% | residual activity [36] 100% | residual activity [37] 100% | inhibition [38] 0.711% | residual activity [39] 100% | residual activity [40] 84% | residual activity [41] 89% | residual activity [42] 100% | residual activity [43] 88% | residual activity [44] 100% | residual activity [45] 100%
